Measurements reported in paper PMC10133546, “Simultaneous determination of multiple components in rat plasma by UHPLC-sMRM for pharmacokinetic studies after oral administration of Qingjin Yiqi Granules” (Frontiers in Pharmacology, 2023).

Tests used:
[1] = Stability of analytes in rat plasma (auto-sampler, freeze-thaw, room temperature, long-term); conditions: for Autosampler for 24 h Accuracy (%): autosampler 24 h; for Room temperature for 24 h Accuracy (%): room temperature 24 h; for Freeze thaw cycles Accuracy (%): three freeze-thaw cycles; for −80°C for 1month Accuracy (%): −80°C 1 month
[2] = Stability of the working solution (4°C for 1 month); assay type: physicochemical
Protocol: The stability of analytes in plasma was evaluated by analyzing 4 QC samples (n = 6). The stability was included auto-sampler stability (keeping the sample in auto-sampler for 24 h), three times of freeze-thaw cycles stability (freezing cycle at −80°C, thawing cycle at room temperature), room temperature stability (storing samples at room temperature for 24 h), long-term stability (storing samples at −80°C for 1 month). […] Accompanying curve was established when testing the sample, calculate and compare the ratio of the actual measured concentration to the theoretical concentration, expressed in accuracy and RSD.

[3] = Pharmacokinetic study in rat plasma after oral administration of QJYQ (UHPLC-sMRM); assay type: in vivo, Sprague-Dawley rats; conditions: rat, in vivo, po, 3.15 g/kg
Protocol: Exion LC AD tandem Blueline 3500 triple quadrupole mass spectrometer (AB SCIEX, Framingham, MA, United States) was used to thirty-three compounds in rat plasma. […] The whole detailed parameters of sMRM were obtained in Supplementary Table S1.
Rat plasma (100 μL) was mixed with 10% formic acid (10 μL) and vortexed for 1 min at room temperature. ISs (10 μL) and methanol/acetonitrile (1/1, v/v) (400 μL) were added and vortexed for 5 min, then centrifuged for 10 min at 14,000 rpm and 4°C. The transported supernatant was condensed to dryness under the flow of nitrogen gas. The dried residue was reconstituted with 70% methanol (100 μL) by vortex-mixing for 5 min and centrifuging at 14,000 rpm for 10 min. Last, 2 μL of the solution were injected into the UHPLC-sMRM system.
The pharmacokinetic study was approved by the Animal Ethics Committee of Tianjin University of Traditional Chinese Medicine (TCM-LAEC2021228). Ten male Sprague-Dawley rats (weight 220–240 g) was kept at the animal center of Tianjin University of Traditional Chinese Medicine (Tianjin, China). […] The sample was transferred right away following a 10 min period of centrifugation at 7000 rpm and 4°C. All plasma samples were frozen and stored at −80°C.
All the pharmacokinetic parameters were calculated using the DAS 1.0 software (Drug and Statistics 1.0, Medical College of Wannan, China). Pharmacokinetic parameters include the maximum drug concentration in plasma (Cmax), the time to achieve maximum drug concentration (Tmax), the area under the plasma concentration-time curve (AUC), elimination half-life (T1/2), and mean residence time (MRT). The pharmacokinetic parameters were computed using the non-compartmental model. All data are expressed as mean ± standard deviation (SD). GraphPad Prism 8.0 (GraphPad Software Inc., La Jolla, CA, United States) software was used to draw the drug-time curve.

Autosampler for 24 h Accuracy (%) ([1]; 50 ng/mL)	−80°C for 1month Accuracy (%) ([1]; 50 ng/mL)	Working solution Accuracy (%) ([2]; 12.5 ng/mL)	Working solution Accuracy (%) ([2]; 50 ng/mL)	Working solution Accuracy (%) ([2]; 100 ng/mL)	Working solution Accuracy (%) ([2]; 500 ng/mL)	SMILES	Autosampler for 24 h Accuracy (%) ([1]; 12.5 ng/mL)	Room temperature for 24 h Accuracy (%) ([1]; 12.5 ng/mL)	Freeze thaw cycles Accuracy (%) ([1]; 12.5 ng/mL)	−80°C for 1month Accuracy (%) ([1]; 12.5 ng/mL)	Autosampler for 24 h Accuracy (%) ([1]; 100 ng/mL)	Freeze thaw cycles Accuracy (%) ([1]; 100 ng/mL)	−80°C for 1month Accuracy (%) ([1]; 100 ng/mL)	Autosampler for 24 h Accuracy (%) ([1]; 500 ng/mL)	Room temperature for 24 h Accuracy (%) ([1]; 500 ng/mL)	Freeze thaw cycles Accuracy (%) ([1]; 500 ng/mL)	−80°C for 1month Accuracy (%) ([1]; 500 ng/mL)	Autosampler for 24 h Accuracy (%) ([1]; 1.56 ng/mL)	Room temperature for 24 h Accuracy (%) ([1]; 100 ng/mL)	Working solution Accuracy (%) ([2]; 1.56 ng/mL)	further results
93.1	107.0	87.6	95.0	94.6	96.8	O=C(/C=C/c1ccc(O)c(O)c1)O[C@H]1[C@H](O)C[C@](O)(C(=O)O)C[C@H]1O [cryptochlorogenic acid]	94.6	90.6	84.5	90.6	92.7	88.9	110.0	109.0	100.0	98.7	104.0				Room temperature for 24 h Accuracy (%) ([1]; 50 ng/mL): 91.2%; Freeze thaw cycles Accuracy (%) ([1]; 50 ng/mL): 86.6%
		90.2		94.2	87.0	COc1cc(/C=C/C(=O)O)cc(OC)c1O [sinapic acid]														100.0	AUC(0-t) [3]: 86.98 ± 6.62 ng·h/mL; AUC(0-∞) [3]: 86.99 ± 6.62 ng·h/mL; Cmax [3]: 26.77 ± 7.87 ng/mL; MRT (0-∞) [3]: 6.28 ± 0.91 h; MRT(0-t) [3]: 6.28 ± 0.91 h; T1/2 [3]: 2.20 ± 0.13 h

The remaining lines, values behind:

SMILES	Autosampler for 24 h Accuracy (%) ([1]; 50 ng/mL)	−80°C for 1month Accuracy (%) ([1]; 50 ng/mL)	Working solution Accuracy (%) ([2]; 12.5 ng/mL)	Working solution Accuracy (%) ([2]; 50 ng/mL)	Working solution Accuracy (%) ([2]; 100 ng/mL)	Working solution Accuracy (%) ([2]; 500 ng/mL)	Autosampler for 24 h Accuracy (%) ([1]; 12.5 ng/mL)	Room temperature for 24 h Accuracy (%) ([1]; 12.5 ng/mL)	Freeze thaw cycles Accuracy (%) ([1]; 12.5 ng/mL)	−80°C for 1month Accuracy (%) ([1]; 12.5 ng/mL)	Autosampler for 24 h Accuracy (%) ([1]; 100 ng/mL)	Freeze thaw cycles Accuracy (%) ([1]; 100 ng/mL)	−80°C for 1month Accuracy (%) ([1]; 100 ng/mL)	Autosampler for 24 h Accuracy (%) ([1]; 500 ng/mL)	Room temperature for 24 h Accuracy (%) ([1]; 500 ng/mL)	Freeze thaw cycles Accuracy (%) ([1]; 500 ng/mL)	−80°C for 1month Accuracy (%) ([1]; 500 ng/mL)	Autosampler for 24 h Accuracy (%) ([1]; 1.56 ng/mL)	Room temperature for 24 h Accuracy (%) ([1]; 100 ng/mL)	Working solution Accuracy (%) ([2]; 1.56 ng/mL)	further results
O=c1cc(-c2ccc(O)cc2)oc2c([C@@H]3O[C@H](CO)[C@@H](O)[C@H](O)[C@H]3O)c(O)cc(O)c12 [vitexin]			88.3		89.9	106.0	93.5	105.0	92.0	106.0	93.2	85.5	93.2	92.4	107.0	108.0	92.6	95.0	88.3	95.6	Room temperature for 24 h Accuracy (%) ([1]; 1.56 ng/mL): 92.0%; Freeze thaw cycles Accuracy (%) ([1]; 1.56 ng/mL): 103.0%; −80°C for 1month Accuracy (%) ([1]; 1.56 ng/mL): 90.4%
C[C@@H]1O[C@@H](Oc2c(-c3ccc(O)c(O)c3)oc3cc(O)cc(O)c3c2=O)[C@H](O)[C@H](O)[C@H]1O [quercitrin]					90.4	99.1	94.7	87.1	90.0	97.1	98.3	100.0	95.6	108.0	98.0	89.3	96.0	95.2	99.6	92.6	Room temperature for 24 h Accuracy (%) ([1]; 1.56 ng/mL): 85.2%; Freeze thaw cycles Accuracy (%) ([1]; 1.56 ng/mL): 86.2%; −80°C for 1month Accuracy (%) ([1]; 1.56 ng/mL): 86.7%
O=C1C[C@@H](c2ccc(O)cc2)Oc2cc(O)cc(O)c21 [naringenin]	98.3	98.2	93.5	102.0	85.6	98.2		94.4	97.6	85.7	99.5		97.4	107.0	95.2		94.2		92.9		
